Assay results reported in ChEMBL document CHEMBL1201862, “PubChem BioAssay data set” (2004).
Activity calls are given as the source filed them.

Tests used:
[1] = cervical cancer cell viability loss – HeLa, 24 h, plate reader, powder samples, set 3, cytotoxicity control, dose response (AID 651864); type: functional, cell-based
[2] = target: Cytochrome P450 2C9 (Homo sapiens, UniProt P11712)
[3] = fluconazole-exposed Candida albicans growth modulators – fluorescence, retest, confirmation (AID 2467); type: functional, cell-based
[4] = viability of PTEN-deleted HCT116 cells – cell-based, HCT116 PTEN knockout, dose response (AID 1047); type: functional;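 also: HCT116 colon tumor cells with PTEN knocked out; cells exposed to compound for 60 hours before readout; potency for loss of cell viability measured by luminescence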
[5] = target: T1, Microphthalmia-associated transcription factor (Homo sapiens, UniProt O75030); test: reducers of TRPM1 reporter luminescence, concentration series – cell-based, SK-MEL-5, cherry-picked, set 3, MITF inhibitor project, dose response (AID 493073); type: functional;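 also: SK-MEL-5 melanoma cells with luciferase driven by the MITF target TRPM1 promoter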
T1 sequence (O75030 whole entry): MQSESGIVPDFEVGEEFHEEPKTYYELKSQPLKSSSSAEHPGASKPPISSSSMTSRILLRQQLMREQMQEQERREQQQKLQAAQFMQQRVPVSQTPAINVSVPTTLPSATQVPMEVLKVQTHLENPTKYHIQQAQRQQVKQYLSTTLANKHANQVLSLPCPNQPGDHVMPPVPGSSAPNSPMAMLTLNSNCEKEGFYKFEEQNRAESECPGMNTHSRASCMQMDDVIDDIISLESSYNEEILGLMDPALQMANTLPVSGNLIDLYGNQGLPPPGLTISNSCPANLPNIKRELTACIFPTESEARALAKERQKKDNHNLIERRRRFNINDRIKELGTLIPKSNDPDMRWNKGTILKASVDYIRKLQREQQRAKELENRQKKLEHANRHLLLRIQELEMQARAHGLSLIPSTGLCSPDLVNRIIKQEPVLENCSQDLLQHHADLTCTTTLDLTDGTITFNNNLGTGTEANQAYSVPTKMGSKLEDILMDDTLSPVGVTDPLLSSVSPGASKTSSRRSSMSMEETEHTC

[6] = HEK-293T viability loss after treatment – luminescence, T-cell screen hits, cytotoxicity control for TCR NF-kB inhibitor project, dose response (AID 489026); type: functional, cell-based;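 also: cells exposed to compound about 14 hours before the viability readout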
[7] = viability of HCT116 lacking mutant beta-catenin – cell-based, human colon tumor, dose response (AID 1045); type: functional;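 also: HCT116 colon tumor cells with beta catenin knocked out; cells exposed to compound for 60 hours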
[8] = target: Cytochrome P450 3A4 (Homo sapiens, UniProt P08684);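 also: CYP3A4 tested as one member of a cytochrome P450 panel screen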
Sequence of Cytochrome P450 3A4 (P08684 whole entry): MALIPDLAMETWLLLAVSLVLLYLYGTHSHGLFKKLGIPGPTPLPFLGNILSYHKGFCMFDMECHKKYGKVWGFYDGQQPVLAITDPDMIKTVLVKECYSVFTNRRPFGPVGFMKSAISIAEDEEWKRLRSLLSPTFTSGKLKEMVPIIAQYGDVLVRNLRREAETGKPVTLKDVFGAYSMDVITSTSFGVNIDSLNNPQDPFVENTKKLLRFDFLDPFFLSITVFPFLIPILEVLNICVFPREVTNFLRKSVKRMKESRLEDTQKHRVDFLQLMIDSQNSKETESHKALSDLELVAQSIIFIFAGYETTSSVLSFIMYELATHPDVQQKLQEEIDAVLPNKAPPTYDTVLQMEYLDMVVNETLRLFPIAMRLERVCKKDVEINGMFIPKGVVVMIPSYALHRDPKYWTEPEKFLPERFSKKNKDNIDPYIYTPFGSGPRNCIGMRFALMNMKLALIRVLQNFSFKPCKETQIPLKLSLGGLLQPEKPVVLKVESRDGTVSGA

[9] = NIH-3T3 fibroblast cytotoxicity, dose response, cytotoxicity control, cell-based, fluorescence, Alamar Blue, secondary assay (AID 2327); type: functional;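 also: NIH-3T3 mouse fibroblasts cultured with fluconazole at 8 µg/mL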
[10] = reduced cellular PGC1a acetyl-lysine signal – cell-based, cherry-picked samples, dose response (AID 720514); type: functional;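 also: potency may reflect raised or lowered acetylation signal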
[11] = cytotoxicity in MITF-independent A375 cells – cell-based, CellTiter-Glo luminescence, dry powder, set 4, counter-screen for MITF inhibitor project, dose response (AID 624364); type: functional; details: A-375;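 also: A375 melanoma cells are MITF independent so this is a counter screen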
[12] = viability loss in MITF-independent A375 cells – cell-based, CellTiter-Glo luminescence, dry powder, set 2, counter-screen for MITF inhibitor project, dose response (AID 624489); type: functional; details: A-375;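 also: actives are compounds lowering A375 viability meaning general cytotoxicity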
[13] = target: Nonstructural protein 1 (Influenza A virus, UniProt Q194T2); type: functional, Influenza A virus (A/California/07/2009(H1N1))
Sequence of Nonstructural protein 1 (Q194T2 whole entry): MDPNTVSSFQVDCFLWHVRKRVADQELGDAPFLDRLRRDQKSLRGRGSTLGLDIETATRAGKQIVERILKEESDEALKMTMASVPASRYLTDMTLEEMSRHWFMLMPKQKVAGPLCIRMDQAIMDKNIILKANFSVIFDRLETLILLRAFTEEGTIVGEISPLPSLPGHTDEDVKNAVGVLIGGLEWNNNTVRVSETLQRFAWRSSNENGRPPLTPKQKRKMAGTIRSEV

[14] = ATP-based viability loss in HEK293T cells – cell-based, CellTiter-Glo luminescence, dry powder, set 2, cytotoxicity control, dose response (AID 720595); type: functional; details: HEK293
[15] = Luminescence-based counterscreen assay for KLF5 inhibitors: dose response cell-based high throughput screening assay to identify cytotoxic compounds using the IEC-6 intestinal epithelial cell line. [Related pubchem assays: 1700 (Primary screen.), 1834 (Confirmation screen.), 1858 (Summary AID.), 1905 (Counterscreen.)]; type: functional
[16] = ATP-based viability loss in HeLa cells – cell-based, CellTiter-Glo luminescence, dry powder, set 2, cytotoxicity control, dose response (AID 720593); type: functional
[17] = target: T2, Methionyl-tRNA synthetase, putative (Trypanosoma brucei brucei, UniProt Q38C91); type: functional, Trypanosoma brucei brucei strain 927/4 GUTat10.1
T2 sequence (Q38C91 whole entry): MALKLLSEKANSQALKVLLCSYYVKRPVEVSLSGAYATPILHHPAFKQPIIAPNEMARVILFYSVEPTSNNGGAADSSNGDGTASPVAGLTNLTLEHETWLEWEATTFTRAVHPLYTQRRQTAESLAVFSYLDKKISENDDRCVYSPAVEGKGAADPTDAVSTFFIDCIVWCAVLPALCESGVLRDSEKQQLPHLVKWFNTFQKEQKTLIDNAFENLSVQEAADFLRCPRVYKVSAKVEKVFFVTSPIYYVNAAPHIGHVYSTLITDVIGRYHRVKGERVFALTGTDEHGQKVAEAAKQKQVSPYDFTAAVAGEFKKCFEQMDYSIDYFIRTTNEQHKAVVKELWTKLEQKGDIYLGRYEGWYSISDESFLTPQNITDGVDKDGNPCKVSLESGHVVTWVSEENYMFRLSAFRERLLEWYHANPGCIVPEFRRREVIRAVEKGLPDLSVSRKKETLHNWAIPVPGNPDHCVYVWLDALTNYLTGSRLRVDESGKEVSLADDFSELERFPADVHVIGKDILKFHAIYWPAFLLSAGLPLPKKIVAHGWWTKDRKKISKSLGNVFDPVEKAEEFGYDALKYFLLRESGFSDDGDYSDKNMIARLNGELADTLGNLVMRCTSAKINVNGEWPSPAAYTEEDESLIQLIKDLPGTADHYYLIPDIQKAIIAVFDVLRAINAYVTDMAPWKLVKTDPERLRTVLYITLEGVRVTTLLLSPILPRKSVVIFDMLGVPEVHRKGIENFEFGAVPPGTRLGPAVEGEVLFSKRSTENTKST

[18] = inhibition of trypanosomal methionyl-tRNA synthetase – biochemical, fluorescence polarization, dose response, orthogonal assay for T. brucei MetRS inhibitor project, late-stage follow-up (AID 686969)
[19] = Late stage counterscreen for inhibitors of Trypanosoma brucei methionyl tRNA synthetase (MetRS): Luminescence-based cell-based high throughput dose response assay to identify compounds that are cytotoxic to Jurkat human T lymphocyte cells.; type: functional
[20] = Counterscreen for inhibitors of Trypanosoma brucei methionyl tRNA synthetase (MetRS): Luminescence-based cell-based high throughput dose response assay to identify compounds that are cytotoxic to Jurkat human T lymphocyte cells.; type: functional
[21] = target: T2, Methionyl-tRNA synthetase, putative; type: functional, Trypanosoma brucei brucei strain 927/4 GUTat10.1; remark: listed apart in the source
[22] = growth inhibition of yeast DHODH-expressing 3D7 parasites – SYBR Green, dry powder samples, dose response (AID 1159570); type: functional, cell-based;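 also: parasite growth measured after 72 hours of compound exposure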
[23] = growth inhibition of PfATP4-mutant resistant parasites – NITD609-resistant line, SYBR Green, dry powder, dose response (AID 1159571); type: functional, cell-based;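 also: parasites synchronized at ring stage by sorbitol before testing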
[24] = P. falciparum Dd2 growth inhibitors, dose response, SYBR Green, cherry-picked samples (AID 1159567); type: functional, cell-based
[25] = toxicity to human hepatoma HepG2 cells – cell-based, cherry-picked samples, cytotoxicity control, dose response (AID 1159577); type: functional
[26] = toxicity to human HepG2 hepatoma cells – cell-based, plate reader, dry powder samples, cytotoxicity control, dose response (AID 1159569); type: functional;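 also: inhibitor potency with signal falling toward the positive control level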
[27] = Dd2 malaria parasite growth inhibition potency – SYBR Green, dry powder samples, dose response (AID 1159566); type: functional, cell-based;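 also: potency for growth inhibition with lower SYBR green DNA signal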

Sequence of Cytochrome P450 2C9 (P11712 whole entry): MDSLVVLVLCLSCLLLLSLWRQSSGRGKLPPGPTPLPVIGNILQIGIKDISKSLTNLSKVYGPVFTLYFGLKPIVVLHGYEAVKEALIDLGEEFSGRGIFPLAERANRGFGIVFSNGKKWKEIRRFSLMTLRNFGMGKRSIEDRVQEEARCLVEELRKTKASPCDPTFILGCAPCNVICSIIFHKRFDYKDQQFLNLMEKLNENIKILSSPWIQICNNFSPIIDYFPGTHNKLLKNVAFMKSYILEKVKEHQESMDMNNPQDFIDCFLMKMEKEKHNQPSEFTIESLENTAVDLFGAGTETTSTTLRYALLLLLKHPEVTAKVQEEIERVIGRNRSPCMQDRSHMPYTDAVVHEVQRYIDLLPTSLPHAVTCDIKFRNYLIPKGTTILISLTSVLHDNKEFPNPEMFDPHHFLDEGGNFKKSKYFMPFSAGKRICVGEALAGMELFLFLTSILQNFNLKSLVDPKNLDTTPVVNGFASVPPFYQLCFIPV

In the case of CCn1nnc(CCc2ccc(N3CCCC3)cc2)n1, the AC50 [1] is reported as > 160 µM (inactive).

For Cn1c(SC2=CS(=O)(=O)c3ccccc32)nc2ccccc21, the AC50 [2] was 28.2 µM (inconclusive), the EC50 [3] was > 38 µM (not active) and the EC50 [4] was 2.87 µM (active). The AC50 [5] was 6.72 µM (active), the IC50 [6] was > 80 µM (inactive) and the EC50 [7] was 1.97 µM (active). The AC50 [8] was 39.8 µM (inconclusive), the EC50 [9] was 7.76 µM (inconclusive) and the AC50 [10] was 11.3 µM (active).

For COc1ccc(C2=C(NC(=O)c3ccccc3OC)C(=O)c3ccccc3C2=O)cc1, the AC50 [11] was 38.1 µM (active) and the AC50 [12] was 32.4 µM (active).

In the case of O=C(CSc1n[nH]c(-c2ccccn2)n1)Nc1ccc(Cl)cc1, the IC50 [13] is reported as 8.79 µM (active), the AC50 [14] is reported as 2.2 µM (active) and the IC50 [15] is reported as 5.14 µM (active). For the same compound, the AC50 [16] was 47.5 µM (active).

With COc1ccc(CNC(=O)CSc2n[nH]c3c4cc(F)ccc4nc-3n2)cc1 the IC50 [17] was 0.879 µM (active), the IC50 [18] was > 1.54 µM (active) and the IC50 [19] was > 83.3 µM (inactive). The IC50 [20] was 83.3 µM (inactive) and the IC50 [21] was 4.39 µM (active).

In the case of Cc1nc(N2[C@H](CO)[C@H](c3ccccc3)[C@H]2CNCC2CCC2)sc1C, the AC50 [22] is reported as 1.47 µM (active), the AC50 [23] is reported as 1.34 µM (active) and the AC50 [24] is reported as 1.8 µM (active). The AC50 [25] was 29.3 µM (active), the AC50 [26] was > 100 µM (inactive) and the AC50 [27] was 0.881 µM (active).
